{"source": "paper PMC5003771", "about": "(Molecular microbiology, 2015)", "key": {"CabPA": {"target": "CabPA (Streptococcus mutans, UniProt Q8DT33)", "assay": "DRaCALA, […]-labelled c-di-AMP on nitrocellulose", "assay_type": "binding"}, "CabPB": {"target": "CabPB (Streptococcus mutans, UniProt Q8DSR3)", "assay": "DRaCALA, […]-labelled c-di-AMP on nitrocellulose", "assay_type": "binding"}}, "data": [{"smiles": "Nc1ncnc2c1ncn2[C@@H]1O[C@@H]2COP(=O)(O)O[C@H]3[C@@H](O)[C@H](n4cnc5c(N)ncnc54)O[C@@H]3COP(=O)(O)O[C@H]2[C@H]1O", "note": "[c-di-AMP]", "values": [{"measurement": "Kd", "setting": "CabPA", "result": "7.8 ± 0.3", "unit": "µM"}, {"measurement": "Kd", "setting": "CabPB", "result": "1.2 ± 0.2", "unit": "µM"}]}]}
